Our source for the T/C values is PubChem BioAssay AID248 (DTP/NCI, 2004).

This experiment deals with L1210 leukemia ip in BDF1 mice, survival T/C. Briefly: NCI In Vivo Anticancer Drug Screen. Data for tumor model L1210 Leukemia (intraperitoneal) in B6D2F1 (BDF1) mice. As to conditions: endpoint: mean survival time, higher = longer survival. Summed up:
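Value reflects the ratio of survival in compound-treated mice to survival in vehicle-treated controls, with both groups carrying the same transplanted tumor.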

Setting [1] is: dose: 100.0 mg/kg/injection, schedule: Q01DX001 (ip), vehicle: carboxymethylcellulose (CMC).
Setting [2] is: dose: 200.0 mg/kg/injection, schedule: Q01DX001 (ip), vehicle: carboxymethylcellulose (CMC).
[3] abbreviates: dose: 400.0 mg/kg/injection, schedule: Q01DX001 (ip), vehicle: carboxymethylcellulose (CMC).
Setting [4] is: dose: 50.0 mg/kg/injection, schedule: Q01DX009 (ip), vehicle: saline with Tween-80.
Setting [5] is: dose: 100.0 mg/kg/injection, schedule: Q01DX001 (ip), vehicle: saline.
Setting [6] is: dose: 200.0 mg/kg/injection, schedule: Q01DX001 (ip), vehicle: saline.
[7] abbreviates: dose: 400.0 mg/kg/injection, schedule: Q01DX001 (ip), vehicle: saline.
Setting [8] is: dose: 100.0 mg/kg/injection, schedule: Q01DX009 (ip), vehicle: Klucel (hydroxypropylcellulose) (HPC).
Setting [9] is: dose: 100.0 mg/kg/injection, schedule: Q01DX001 (ip), vehicle: other.
[10] abbreviates: dose: 200.0 mg/kg/injection, schedule: Q01DX001 (ip), vehicle: other.
[11] abbreviates: dose: 100.0 mg/kg/injection, schedule: Q04DX002 (ip), vehicle: saline with Tween-80.
The mark [12] stands for this setting: dose: 200.0 mg/kg/injection, schedule: Q04DX002 (ip), vehicle: saline with Tween-80.
Setting [13] is: dose: 100.0 mg/kg/injection, schedule: Q04DX003 (ip), vehicle: Klucel (hydroxypropylcellulose) (HPC).
The mark [14] stands for this setting: dose: 200.0 mg/kg/injection, schedule: Q01DX009 (ip), vehicle: Klucel (hydroxypropylcellulose) (HPC).
[15] abbreviates: dose: 200.0 mg/kg/injection, schedule: Q04DX003 (ip), vehicle: Klucel (hydroxypropylcellulose) (HPC).
[16] abbreviates: dose: 400.0 mg/kg/injection, schedule: Q04DX003 (ip), vehicle: Klucel (hydroxypropylcellulose) (HPC).
The mark [17] stands for this setting: dose: 400.0 mg/kg/injection, schedule: Q01DX009 (ip), vehicle: Klucel (hydroxypropylcellulose) (HPC).

“And” between values parts separate entries of the source, which are not always exact repeats. Equal entries are not always repeated. Toxic doses and inconclusive results are not listed.

Turning to `OCC1OCOC(CI)C(O)C1O` (stereo not drawn), the T/C by setting is: under setting [1], 97 % of control; under setting [2], 101 % of control; under setting [3], 97 % of control.

On to `O=C(NCCO)c1ccc(Br)cc1`, for which the T/C was 97 % of control under setting [4]; 97 % of control (dose: 100.0 mg/kg/injection, schedule: Q01DX009 (ip), vehicle: saline with Tween-80); 90 % of control (dose: 200.0 mg/kg/injection, schedule: Q01DX009 (ip), vehicle: saline with Tween-80).

In the case of `O=C(CN1CC1)NCCCCCCCNC(=O)CN1CC1`, the T/C is, setting by setting: (dose: 6.5 mg/kg/injection, schedule: Q01DX001 (ip), vehicle: carboxymethylcellulose (CMC)) 120 % of control; (dose: 7.0 mg/kg/injection, schedule: Q01DX009 (ip), vehicle: carboxymethylcellulose (CMC)) 94 % of control; (dose: 9.7 mg/kg/injection, schedule: Q01DX001 (ip), vehicle: carboxymethylcellulose (CMC)) 123 % of control; (dose: 11.0 mg/kg/injection, schedule: Q01DX009 (ip), vehicle: carboxymethylcellulose (CMC)) 100 % of control; (dose: 16.0 mg/kg/injection, schedule: Q01DX009 (ip), vehicle: carboxymethylcellulose (CMC)) 94 % of control; (dose: 25.0 mg/kg/injection, schedule: Q01DX009 (ip), vehicle: carboxymethylcellulose (CMC)) 103 % of control. Moreover, the T/C (dose: 33.0 mg/kg/injection, schedule: Q01DX001 (ip), vehicle: carboxymethylcellulose (CMC)) is 154 % of control.

With `OCC(F)(F)C(F)F`, the T/C was 91 % of control (dose: 50.0 mg/kg/injection, schedule: Q01DX001 (ip), vehicle: saline); 94 % of control under setting [5]; 91 % of control under setting [6]; 100 % of control under setting [7].

Turning to `CCCCCCCCCCCCSCCSCCCCCCCCCCCC`, the T/C was 93 % of control under setting [1], 86 % of control under setting [2] and 102 % of control under setting [3].

Regarding `CCC1([N+](=O)[O-])COP(=O)(OC(=O)c2ccco2)OC1` (stereo not drawn), the T/C is 97 % of control under setting [5], 96 % of control under setting [6] and 96 % of control under setting [7].

Take `CC1(Cl)C(=O)NN=C1c1ccc([N+](=O)[O-])cc1` (stereo not drawn): the T/C was 102 % of control under setting [1], 102 % of control under setting [2] and 105 % of control under setting [3].

For the molecule `O=C1C=CC(=O)C2C3C=CC(C3)C12` (stereo not drawn), the T/C is, setting by setting: (dose: 25.0 mg/kg/injection, schedule: Q01DX009 (ip), vehicle: Klucel (hydroxypropylcellulose) (HPC)) 102 % of control; (dose: 50.0 mg/kg/injection, schedule: Q01DX009 (ip), vehicle: Klucel (hydroxypropylcellulose) (HPC)) 98 % of control; under setting [8], 94 % of control and 102 % of control.

On to `CCOC(=O)C(CC(C)C)NC(=O)C(N)Cc1ccc(N(CCCl)CCCl)cc1` (stereo not drawn), for which the T/C (dose: 2.5 mg/kg/injection, schedule: Q01DX009 (ip), vehicle: water) is 116 % of control.

For the molecule `COC(=O)c1[nH]cnc1/N=N/Nc1ccc(Cl)cc1`, the T/C is, setting by setting: (dose: 50.0 mg/kg/injection, schedule: Q01DX001 (ip), vehicle: other) 103 % of control; under setting [9], 105 % of control; under setting [10], 105 % of control; (dose: 400.0 mg/kg/injection, schedule: Q01DX001 (ip), vehicle: other) 94 % of control.

On to `O=C(Nc1ccc(C(=O)c2ccccc2)cc1)Nc1ccc(C(=O)c2ccccc2)cc1`, for which the T/C runs as follows: (dose: 20.0 mg/kg/injection, schedule: Q01DX009 (ip), vehicle: saline with Tween-80) 95 % of control; (dose: 40.0 mg/kg/injection, schedule: Q01DX009 (ip), vehicle: saline with Tween-80) 87 % of control; (dose: 80.0 mg/kg/injection, schedule: Q01DX009 (ip), vehicle: saline with Tween-80) 90 % of control; (dose: 160.0 mg/kg/injection, schedule: Q01DX009 (ip), vehicle: saline with Tween-80) 91 % of control; (dose: 320.0 mg/kg/injection, schedule: Q01DX009 (ip), vehicle: saline with Tween-80) 93 % of control.

Consider `O=P(NCCCO)(Oc1ccccc1)N(CCCl)CCCl` (stereo not drawn), for which the T/C is, setting by setting: (dose: 125.0 mg/kg/injection, schedule: Q01DX Z (ip), vehicle: saline) 95 % of control; (dose: 250.0 mg/kg/injection, schedule: Q01DX Z (ip), vehicle: saline) 102 % of control; (dose: 500.0 mg/kg/injection, schedule: Q01DX Z (ip), vehicle: saline) 102 % of control.

As for `Cn1c2c(c3ccccc31)CC(C(C)(C)C)CC2` (stereo not drawn), the T/C reads like this: (dose: 50.0 mg/kg/injection, schedule: Q04DX002 (ip), vehicle: saline with Tween-80) 107 % of control; under setting [11], 100 % of control; under setting [12], 97 % of control.

On to `CN(C)C(=O)CCC(=O)O`, for which the T/C reads like this: (dose: 100.0 mg/kg/injection, schedule: Q04DX002 (ip), vehicle: saline) 103 % of control; (dose: 200.0 mg/kg/injection, schedule: Q04DX002 (ip), vehicle: saline) 97 % of control; (dose: 400.0 mg/kg/injection, schedule: Q04DX002 (ip), vehicle: saline) 97 % of control.

Consider `NCCc1cc(O)c(O)c(O)c1`, for which the T/C is 104 % of control (dose: 50.0 mg/kg/injection, schedule: Q01DX009 (ip), vehicle: saline) and 113 % of control (dose: 100.0 mg/kg/injection, schedule: Q01DX009 (ip), vehicle: saline).

With `CCc1nnnn1-c1ccc(Br)cc1`, the T/C by setting is: (dose: 100.0 mg/kg/injection, schedule: Q01DX001 (ip), vehicle: Klucel (hydroxypropylcellulose) (HPC)) 93 % of control; (dose: 200.0 mg/kg/injection, schedule: Q01DX001 (ip), vehicle: Klucel (hydroxypropylcellulose) (HPC)) 102 % of control; (dose: 400.0 mg/kg/injection, schedule: Q01DX001 (ip), vehicle: Klucel (hydroxypropylcellulose) (HPC)) 116 % of control.

Take `CC(=O)OC1CCCCCCCCC1OC(C)=O` (stereo not drawn): the T/C reads like this: under setting [1], 103 % of control; under setting [2], 98 % of control; under setting [3], 95 % of control.

Turning to `CCOC(=O)c1ccc(C(=O)O)[n+]([O-])c1`, the T/C reads like this: under setting [8], 100 % of control; under setting [13], 92 % of control; under setting [14], 95 % of control; under setting [15], 100 % of control; under setting [16], 96 % of control.

Turning to `O=C(O)c1cc(N=Nc2cccc([N+](=O)[O-])c2)ccc1O`, the T/C by setting is: (dose: 62.5 mg/kg/injection, schedule: Q01DX001 (ip), vehicle: Klucel (hydroxypropylcellulose) (HPC)) 97 % of control; (dose: 125.0 mg/kg/injection, schedule: Q01DX001 (ip), vehicle: Klucel (hydroxypropylcellulose) (HPC)) 92 % of control.

For the molecule `O=S1(=O)CN2C=CC=CC2=N1`, the T/C is, setting by setting: under setting [11], 113 % of control; under setting [12], 91 % of control; (dose: 400.0 mg/kg/injection, schedule: Q04DX002 (ip), vehicle: saline with Tween-80) 109 % of control.

Take `BrC1CC/C=C\CCC1Br` (stereo not drawn): the T/C under setting [8] is 93 % of control; the T/C under setting [13] was 105 % of control; the T/C under setting [14] is 87 % of control; the T/C under setting [15] is 91 % of control; the T/C under setting [17] was 93 % of control; the T/C under setting [16] was 109 % of control.

For `Cc1ccc(NC(=O)Oc2cccc(C)c2C)cc1NC(=O)Oc1cccc(C)c1C`, the T/C is 96 % of control under setting [8], 94 % of control under setting [14] and 93 % of control under setting [17].

As to `CCOC(CN1CCCCC1)c1ccccc1` (stereo not drawn), the T/C (dose: 12.5 mg/kg/injection, schedule: Q01DX009 (ip), vehicle: saline with Tween-80) was 98 % of control; the T/C (dose: 25.0 mg/kg/injection, schedule: Q01DX009 (ip), vehicle: saline with Tween-80) was 102 % of control; the T/C under setting [4] is 100 % of control.

With `CCN(CC)CCOc1cc(C)c2cc(Cc3ccccc3)ccc2n1`, the T/C is 104 % of control under setting [9] and 96 % of control under setting [10].

For `C=C(C)COc1cc(C=NCCCC)c(C)cc1C`, the T/C (dose: 100.0 mg/kg/injection, schedule: Q04DX003 (ip), vehicle: saline with Tween-80) is 96 % of control; the T/C (dose: 200.0 mg/kg/injection, schedule: Q04DX003 (ip), vehicle: saline with Tween-80) was 102 % of control; the T/C (dose: 400.0 mg/kg/injection, schedule: Q04DX003 (ip), vehicle: saline with Tween-80) is 96 % of control.
